Assay results reported in US20160053120A1, “AZO DYE USED FOR A COLOR FILTER OF A LCD” (DOW GLOBAL TECHNOLOGIES LLC, priority 2013, published 2016).

Assays:
[1] = Solubility in cyclohexanone at 25° C.; format: physicochemical
[2] = Thermal stability of polymer film (ΔEab before and after hard baking at 200° C. for 1 hour); format: physicochemical; conditions: dye in acrylic resin film, baked at 200° C. under air for 1 hour; smaller ΔEab = better heat resistance
Protocol: The obtained dry film was baked at 200° C. under air for 1 hour to evaluate heat resistance. Optical performance measured by the difference between chromaticity coordinates of before and after baking (ΔEab value) was 4.9. A smaller ΔEab value indicates better heat resistance.
The wet films after spin coating are dried in oven at 80° C. for 30 minutes and then soft baked at 150° C. for 15 minutes. The chromaticity coordinates (L, a, b) are recorded with UltraScan Pro (Hunterlab) colorimeter. D65 light source is used and results are based on CIE Lab coordinates. After that the films are hard baked at target temperature (200° C.) for lhour and the new chromaticity coordinates (L′, a′, b′) are recorded with the method above. The thermal stability is indicated by the difference of chromaticity coordinate before and after hard baking represented by the following formula;
ΔE=√{square root over ((L−L′^2+(a−a′)^2+(b−b′)^2)}{square root over ((L−L′^2+(a−a′)^2+(b−b′)^2)}.

Solubility in cyclohexanone at 25° C. (wt %) [1] [wt %]	Thermal stability at 200° C. (ΔEab) [2]	SMILES
6.4	43	CC1=NN(c2ccccc2)C(=O)C1/N=N/c1ccccc1 (stereo not drawn) [Example 2, C.I. solvent yellow 16]
4.3	15	Cc1ccccc1/N=N/c1ccc(/N=N/c2c(O)ccc3ccccc23)c(C)c1 [Example 3, C.I. solvent red 24]
6.4	64	Oc1ccc2ccccc2c1/N=N/c1ccccc1 [Example 4, C.I. solvent yellow 14]
